How the values were obtained:
[1] = tested on: alkaline phosphatase activity in T47D cells; test: Effects of progestins and antiprogestins on alkaline phosphatase activity in T47D cells (antagonist mode); type: cell-based; details: Homo sapiens, in the presence of 1 nM progesterone, read-out: T47D Alkaline Phosphatase Activity IC50 (nM) or % inhibition; for IC50: 24 h
[2] = target: T1, progesterone receptor (PR) (Homo sapiens, UniProt P06401); test: Progesterone receptor whole cell competition binding assay using T47D cells; details: intact T47D cells, 3 nM 3H-progesterone, 3 h at 37° C.
T1 construct: in live, intact (whole) cells using the human breast carcinoma T47D cell line; endogenous in cells; host or cells: T47D human breast carcinoma cells
T1 sequence (P06401 1-933): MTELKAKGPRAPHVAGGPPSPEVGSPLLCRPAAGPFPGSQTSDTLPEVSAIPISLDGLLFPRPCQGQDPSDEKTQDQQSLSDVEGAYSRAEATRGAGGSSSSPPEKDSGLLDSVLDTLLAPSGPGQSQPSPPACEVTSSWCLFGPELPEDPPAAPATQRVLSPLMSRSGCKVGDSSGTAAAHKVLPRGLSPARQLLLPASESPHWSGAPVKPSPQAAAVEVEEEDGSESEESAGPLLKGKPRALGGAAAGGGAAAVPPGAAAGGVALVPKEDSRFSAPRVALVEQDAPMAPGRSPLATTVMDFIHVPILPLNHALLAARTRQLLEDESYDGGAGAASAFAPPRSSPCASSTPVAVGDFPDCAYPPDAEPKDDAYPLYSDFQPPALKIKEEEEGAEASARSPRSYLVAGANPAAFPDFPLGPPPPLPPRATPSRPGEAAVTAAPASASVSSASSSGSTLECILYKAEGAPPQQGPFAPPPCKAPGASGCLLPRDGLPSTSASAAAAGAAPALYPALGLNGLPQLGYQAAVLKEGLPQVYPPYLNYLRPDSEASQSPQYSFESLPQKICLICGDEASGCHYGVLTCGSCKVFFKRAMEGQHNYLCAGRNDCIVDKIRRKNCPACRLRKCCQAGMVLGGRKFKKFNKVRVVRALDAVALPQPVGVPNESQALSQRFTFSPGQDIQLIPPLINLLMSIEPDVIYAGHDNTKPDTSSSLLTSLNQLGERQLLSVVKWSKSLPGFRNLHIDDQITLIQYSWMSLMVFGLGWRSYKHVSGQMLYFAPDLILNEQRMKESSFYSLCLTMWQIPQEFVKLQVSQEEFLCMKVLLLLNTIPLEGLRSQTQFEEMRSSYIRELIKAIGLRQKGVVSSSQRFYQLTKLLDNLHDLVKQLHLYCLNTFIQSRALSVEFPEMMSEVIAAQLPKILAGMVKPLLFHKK
Procedure: (2) Progesterone Receptor Whole Cell Competition Binding Assay Using T47D Cells
PURPOSE: To evaluate the progesterone receptor (PR) binding activity of progestins or antiprogestins in live, intact (whole) cells using the human breast carcinoma T47D cell line and ^3H-progesterone as the labeled ligand.
Culture Medium: • 5% RC: phenol red free DMEM:F12 (1:1) (GIBCO, BRL) supplemented with 5% (v/v) charcoal stripped fetal bovine serum (not heat-inactivated), 100 U/mL penicillin, 100 μg/mL streptomycin, and 2 mM the GlutaMax™ reagent (GIBCO, BRL). • 10% RC: Same as above supplemented with 10% (v/v) FBS. • ^3H-Progesterone: Perkin Elmer Life Science, cat# NET-381 (typically around 102 Ci/mmol)
T47D cells were maintained in 10% RC media at 37° C. in a 5% CO2/humidified atmosphere and were split twice weekly for proper response. Cells were plated in 10% RC the day before binding assay at 50,000 cells per well in the white, clear bottom plates purchased through VWR or Perkin Elmer.
Cells plated the day prior to the assay in white clear bottom plates were used. A master compound plate was set up containing control and test compounds at 20× final desired concentration for the competition binding. A typical dose range of 20× concentrations were (in nM); 200,000; 20,000; 6000; 2000; 600; 200; 20; and 2. Final concentrations were (in nM); 10,000; 1000; 300; 100; 30; 10; 1; 0.1. Control compounds were typically run 10-fold lower than this and include a 0, or vehicle, control well. A stock of 60 nM ^3H-progesterone (20×) were also prepared at a volume needed of 10 μL per well.
Media on cells were replaced with 180 μL of 5% RC. Ten microliters (10 μL) of 60 nM ^3H-progesterone (for final concentration of 3 nM) was added immediately, followed by 10 μL of 20× test or control compounds. Compounds were incubated for 3 h at 37° C. (A time course study found no difference between 2 and 4 h incubation.)
Following incubation, media was carefully removed and cells were washed 3× with 200 μL 5% RC each wash. Fifty microliters of liquid scintillation cocktail was added and the plates were shaken vigorously for a minimum of 15 min. Plates were read on the Wallac Microbeta® 1450 plate reader.
Square root-transformed data were used for analysis of variance and calculation of IC50. SAS software (SAS Institute, Inc.) was used for all the statistical analysis.
Progesterone was used as a reference progestin and RU486 as a reference antiprogestin.

Structure (SMILES)	IC50 [1] [nM]	melting point [°C]	Ki [2] [µM]	inhibition at 3 µM ([1]; % inhibition at 3000 nM) [%]
C[C@@H]1COC(=O)N1c1nc(-c2ccc(C#N)cc2)cs1 [Example 2, 4-{2-[(4R)-4-Methyl-2-oxo-1,3-oxazolidin-3-yl]-1,3-thiazol-4-yl}benzonitrile]	14.6	227 to 228	0.0434	–
C[C@H]1COC(=O)N1c1nc(-c2ccc(C#N)cc2)cs1 [Example 4, 4-{2-[(4S)-4-Methyl-2-oxo-1,3-oxazolidin-3-yl]-1,3-thiazol-4-yl}benzonitrile]	15.8	205 to 207	0.0628	–
CC1(C)COC(=O)N1c1nc(-c2ccc(Br)cc2)cs1 [Example 5, 3-[4-(4-Bromophenyl)-1,3-thiazol-2-yl]-4,4-dimethyl-1,3-oxazolidin-2-one]	6.4	165 to 167	0.0382	–
CC[C@H]1COC(=O)N1c1nc(-c2ccc(C#N)cc2)cs1 [Example 8, 4-{2-[(4S)-4-Ethyl-2-oxo-1,3-oxazolidin-3-yl]-1,3-thiazol-4-yl}benzonitrile]	14.6	173 to 175	0.0526	–
CC[C@@H]1COC(=O)N1c1nc(-c2ccc(C#N)cc2)cs1 [Example 10, 4-{2-[(4R)-4-Ethyl-2-oxo-1,3-oxazolidin-3-yl]-1,3-thiazol-4-yl}benzonitrile]	12.8	153 to 157	0.0233	–
CCC[C@H]1COC(=O)N1c1nc(-c2ccc(C#N)cc2)cs1 [Example 23, 4-{2-[(4S)-2-oxo-4-propyl-1,3-oxazolidin-3-yl]-1,3-thiazol-4-yl}benzonitrile]	28.1	132 to 135	0.0412	–
O=C1OCC2(CCC2)N1c1nc(-c2ccc(Br)cc2)cs1 [Example 26, 5-[4-(4-Bromophenyl)-1,3-thiazol-2-yl]-7-oxa-5-azaspiro[3.4]octan-6-one]	49.4	–	0.0918	–
O=C1OCC2(CCCC2)N1c1nc(-c2ccc(Br)cc2)cs1 [Example 34, 1-[4-(4-Bromophenyl)-1,3-thiazol-2-yl]-3-oxa-1-azaspiro[4.4]nonan-2-one]	95.3	138 to 139	0.529	–
O=C1OC[C@@H](c2ccccc2)N1c1nc(-c2ccc(Br)cc2)cs1 [Example 35, (4R)-3-[4-(4-Bromophenyl)-1,3-thiazol-2-yl]-4-phenyl-1,3-oxazolidin-2-one]	204	218 to 220	0.713	–
O=C1OC[C@@H](Cc2ccccc2)N1c1nc(-c2ccc(Br)cc2)cs1 [Example 36, (4R)-4-Benzyl-3-[4-(4-bromophenyl)-1,3-thiazol-2-yl]-1,3-oxazolidin-2-one]	346	177 to 179	0.968	–
COC(=O)[C@@H]1COC(=O)N1c1nc(-c2ccc(Br)cc2)cs1 [Example 70, Methyl (4S)-3-[4-(4-bromophenyl)-1,3-thiazol-2-yl]-2-oxo-1,3-oxazolidine-4-carboxylate]	–	165 to 167	–	90
CC1(C)OCC(=O)N1c1nc(-c2ccc(Br)cc2)cs1 [Example 77, 3-[4-(4-Bromophenyl)-1,3-thiazol-2-yl]-2,2-dimethyl-1,3-oxazolidin-4-one]	372	–	0.584	–
CC1(C)COC(=O)N1c1nc(-c2ccc(Br)cc2F)cs1 [Example 78, 3-[4-(4-Bromo-2-fluorophenyl)-1,3-thiazol-2-yl]-4,4-dimethyl-1,3-oxazolidin-2-one]	24.8	–	0.0456	–
CC1(C)COC(=O)N1c1nc(-c2ccc(C#N)cc2F)cs1 [Example 79, 4-[2-(4,4-Dimethyl-2-oxo-1,3-oxazolidin-3-yl)-1,3-thiazol-4-yl]-3-fluorobenzonitrile]	31.6	–	0.17	–
CC1(C)COC(=O)N1c1nc(-c2ccc([N+](=O)[O-])cc2)cs1 [Example 80, 4,4-Dimethyl-3-[4-(4-nitrophenyl)-1,3-thiazol-2-yl]-1,3-oxazolidin-2-one]	8.6	–	0.0345	–
CC1(C)COC(=O)N1c1nc(-c2ccc(C#N)c(F)c2)cs1 [Example 81, 4-[2-(4,4-Dimethyl-2-oxo-1,3-oxazolidin-3-yl)-1,3-thiazol-4-yl]-2-fluorobenzonitrile]	2.3	–	~2	–

Second part, led by results:

IC50 [1] [nM]	melting point [°C]	Ki [2] [µM]	Structure (SMILES)	inhibition at 3 µM ([1]; % inhibition at 3000 nM) [%]
22.1	197 to 199	0.0876	C[C@@H]1COC(=O)N1c1nc(-c2ccc(Br)cc2)cs1 [Example 1, (4R)-3-[4-(4-Bromophenyl)-1,3-thiazol-2-yl]-4-methyl-1,3-oxazolidin-2-one]	–
24.6	196 to 198	0.0553	C[C@H]1COC(=O)N1c1nc(-c2ccc(Br)cc2)cs1 [Example 3, (4S)-3-[4-(4-Bromophenyl)-1,3-thiazol-2-yl]-4-methyl-1,3-oxazolidin-2-one]	–
23	138 to 140	0.0753	CC[C@H]1COC(=O)N1c1nc(-c2ccc(Br)cc2)cs1 [Example 7, (4S)-3-[4-(4-Bromophenyl)-1,3-thiazol-2-yl]-4-ethyl-1,3-oxazolidin-2-one]	–
32.9	134 to 135	0.0621	CC[C@@H]1COC(=O)N1c1nc(-c2ccc(Br)cc2)cs1 [Example 9, (4R)-3-[4-(4-Bromophenyl)-1,3-thiazol-2-yl]-4-ethyl-1,3-oxazolidin-2-one]	–
359	144 to 146	0.566	CC(C)C[C@H]1COC(=O)N1c1nc(-c2ccc(Br)cc2)cs1 [Example 37, (4S)-3-[4-(4-Bromophenyl)-1,3-thiazol-2-yl]-4-isobutyl-1,3-oxazolidin-2-one]	–
75.6	174 to 176	0.108	CC(C)C1COC(=O)N1c1nc(-c2ccc(Br)cc2)cs1 (stereo not drawn) [Example 38, 3-[4-(4-Bromophenyl)-1,3-thiazol-2-yl]-4-isopropyl-1,3-oxazolidin-2-one]	–
565	189 to 192	–	O=C1OC[C@@H](CO)N1c1nc(-c2ccc(Br)cc2)cs1 [Example 71, (4R)-3-[4-(4-Bromophenyl)-1,3-thiazol-2-yl]-4-(hydroxymethyl)-1,3-oxazolidin-2-one]	–
5.4	–	0.02	O=C1OC[C@@H](CCl)N1c1nc(-c2ccc(Br)cc2)cs1 [Example 72, (4S)-3-[4-(4-Bromophenyl)-1,3-thiazol-2-yl]-4-(chloromethyl)-1,3-oxazolidin-2-one]	–

Source: patent US7618990B2, “Oxazolidone derivatives as PR modulators” (Wyeth, priority 2006, dated 2009)
